Tests used:
Format in all cases: in vivo
[1] = system: Abutilon theophrasti (ABUTH); experiment: Example 2 post-emergence field trial (1% MSO and AMS); settings: height 10-20 cm, 21-24 DAT, A-1 12.5 g ai/ha, B-2 735 g ai/ha
Procedure: (§1) In the examples below, using the method of S. R. Colby (1967) “Calculating synergistic and antagonistic responses of herbicide combinations”, Weeds 15, p. 22ff., the value E, which is expected if the activity of the individual active compounds is only additive, was calculated:
(§2) [formula] • where • X=percent activity using active herbicide A at an application rate a; • Y=percent activity using active herbicide B (e.g. DMTA-p) at an application rate b; • E=expected activity (in %) by A+B at application rates a+b.
(§3) If the value found experimentally is higher than the value E calculated according to Colby, a synergistic effect is present.
(§4) On field test sites, natural weed infestation or seeded weeds were treated post-emergence of the weeds.
(§5) In the field trials, the weeds were treated as indicated below.
(§6) In the following experiments, the herbicidal activity for the individual herbicidal compositions (solo and mixture applications) was assessed at the indicated days after treatment (DAT). The assessments for the damage on undesired weeds caused by the composition was carried out using a scale from 0 to 100%, compared to the untreated control plants. Here, 0 means no damage and 100 means complete destruction of the plants.
(§7) Post-Emergence Application of Herbicide A-1 (A-1) and Dimethenamid-P (DMTA-p; B-2) in Field Trials
(§8) Herbicide A-1 (100 g/l) and DMTA-p (720 g/l) were, together with addition of 1% MSO (methylated sed oil) and AMS (ammonium sulfate) as adjuvant, formulated in water as distribution medium (water volume 200 l/ha) and sprayed with commercial flat fan nozzles.

[2] = system: Amaranthus tamariscinus (AMATA); experiment: as above; settings: B-2 735 g ai/ha
Procedure: as §1, §2, §3, §4, §5, §6, §7, §8

[3] = system: Digitaria sanguinalis (DIGSA); experiment: as above; settings: height 2-8 cm, 18-21 DAT, A-1 25 g ai/ha, B-2 735 g ai/ha
Procedure: as §1, §2, §3, §4, §5, §6, §7, §8

[4] = system: Amaranthus retroflexus (AMARE); experiment: as above; settings: B-2 735 g ai/ha
Procedure: as §1, §2, §3, §4, §5, §6, §7, §8

[5] = system: Chenopodium album (CHEAL); experiment: as above; settings: height 17-23 cm, 21-24 DAT, A-1 12.5 g ai/ha, B-2 735 g ai/ha
Procedure: as §1, §2, §3, §4, §5, §6, §7, §8

[6] = system: Echinochloa crus-galli (ECHCG); experiment: as above; settings: height 7-15 cm, 18-21 DAT, B-2 735 g ai/ha
Procedure: as §1, §2, §3, §4, §5, §6, §7, §8

[7] = system: Amaranthus palmeri (AMAPA); experiment: as above; settings: B-2 735 g ai/ha
Procedure: as §1, §2, §3, §4, §5, §6, §7, §8

[8] = system: Eleusine indica (ELEIN); experiment: as above; settings: B-2 735 g ai/ha
Procedure: as §1, §2, §3, §4, §5, §6, §7, §8

[9] = system: Portulaca oleracea (POROL); experiment: as above; settings: B-2 735 g ai/ha
Procedure: as §1, §2, §3, §4, §5, §6, §7, §8

[10] = system: Zea mays (ZEAMX); experiment: Example 3 post-emergence field trial, volunteer crop plants (1% MSO); settings: height 43-51 cm, 20 DAT, B-2 735 g ai/ha
Procedure: as §1, §2, §3, §4, §5, §6, §7
(§9) Herbicide A-1 (100 g/l) and DMTA-p (720 g/l) were, together with addition of 1% MSO (methylated sed oil) as adjuvant, formulated in water as distribution medium (water volume 200 l/ha) and sprayed with commercial flat fan nozzles.

[11] = system: Glycine max (GLXMA); experiment: as above; settings: height 6-15 cm, 20 DAT, A-1 30 g ai/ha, B-2 735 g ai/ha
Procedure: as §1, §2, §3, §4, §5, §6, §7, §9

[12] = system: Sorghum bicolor (SORVU); experiment: Example 4 post-emergence field trial (1% MSO and AMS); settings: height 15-20 cm, 20 DAT, A-1 12.5 g ai/ha, B-2 735 g ai/ha
Procedure: as §1, §2, §3, §4, §5, §6, §7, §8

[13] = system: Zea mays (ZEAMX); experiment: as above; settings: 21-24 DAT, B-2 735 g ai/ha
Procedure: as §1, §2, §3, §4, §5, §6, §7, §8

[14] = system: Glycine max (GLXMA); experiment: as above; settings: 21-24 DAT, A-1 12.5 g ai/ha, B-2 735 g ai/ha
Procedure: as §1, §2, §3, §4, §5, §6, §7, §8

[15] = system: Helanthus annuus (HELAN); experiment: as above; settings: height 10-20 cm, 20 DAT, A-1 12.5 g ai/ha, B-2 735 g ai/ha
Procedure: as §1, §2, §3, §4, §5, §6, §7, §8

[16] = system: Eleusine indica (ELEIN); experiment: as above; settings: height 15-20 cm, 21-24 DAT, A-1 12.5 g ai/ha, B-2 735 g ai/ha
Procedure: as §1, §2, §3, §4, §5, §6, §7, §8

[17] = system: Sorghum bicolor (SORVU); experiment: Example 1 post-emergence field trial (1% MSO); settings: height 25-30 cm, 20-21 DAT, A-1 30 g ai/ha, B-2 735 g ai/ha
Procedure: as §1, §2, §3, §4, §5, §6, §7, §9

[18] = system: Amaranthus tamariscinus (AMATA); experiment: Example 1 post-emergence field trial (1% MSO); settings: height 20-25 cm, 20-21 DAT, A-1 20 g ai/ha, B-2 735 g ai/ha
Procedure: as §1, §2, §3, §4, §5, §6, §7, §9

[19] = system: Setaria faberi (SETFA); experiment: Example 1 post-emergence field trial (1% MSO); settings: height 7-13 cm, 20-21 DAT, A-1 20 g ai/ha, B-2 735 g ai/ha
Procedure: as §1, §2, §3, §4, §5, §6, §7, §9

[20] = system: Digitaria sanguinalis (DIGSA); experiment: Example 1 post-emergence field trial (1% MSO); settings: height 2-13 cm, 20-21 DAT, A-1 20 g ai/ha, B-2 735 g ai/ha
Procedure: as §1, §2, §3, §4, §5, §6, §7, §9

[21] = system: Helanthus annuus (HELAN); experiment: Example 1 post-emergence field trial (1% MSO); settings: height 20-25 cm, 20-21 DAT, A-1 20 g ai/ha, B-2 735 g ai/ha
Procedure: as §1, §2, §3, §4, §5, §6, §7, §9

[22] = system: Echinochloa crus-galli (ECHCG); experiment: Example 1 post-emergence field trial (1% MSO); settings: height 10-15 cm, 20-21 DAT, B-2 735 g ai/ha
Procedure: as §1, §2, §3, §4, §5, §6, §7, §9

[23] = system: Amaranthus palmeri (AMAPA); experiment: Example 1 post-emergence field trial (1% MSO); settings: 20-21 DAT, B-2 735 g ai/ha
Procedure: as §1, §2, §3, §4, §5, §6, §7, §9

[24] = system: Setaria viridis (SETVI); experiment: Example 1 post-emergence field trial (1% MSO); settings: height 7-13 cm, 20-21 DAT, A-1 20 g ai/ha, B-2 735 g ai/ha
Procedure: as §1, §2, §3, §4, §5, §6, §7, §9

[25] = height 5-13 cm, 18-21 DAT, A-1 12.5 g ai/ha
[26] = height 7-15 cm, 18-21 DAT, A-1 25 g ai/ha
[27] = height 10-20 cm, 21-24 DAT, A-1 25 g ai/ha
[28] = height 17-28 cm, 21-24 DAT, A-1 12.5 g ai/ha
[29] = height 7-15 cm, 18-21 DAT, A-1 12.5 g ai/ha
[30] = height 20-25 cm, 21-24 DAT, A-1 12.5 g ai/ha
[31] = height 7-10 cm, 18-21 DAT, A-1 12.5 g ai/ha
[32] = height 7-10 cm, 18-21 DAT, A-1 25 g ai/ha
[33] = height 15-20 cm, 21-24 DAT, A-1 25 g ai/ha
[34] = height 2-13 cm, 18-21 DAT, A-1 25 g ai/ha
[35] = height 10-20 cm, 21-24 DAT, A-1 12.5 g ai/ha
[36] = height 10-18 cm, A-1 20 g ai/ha
[37] = height 10-18 cm, A-1 30 g ai/ha

COC[C@H](C)N(C(=O)CCl)c1c(C)csc1C [B-2, dimethenamid-P]
% herbicidal activity [1]: 35%
% herbicidal activity [2, 25]: 15%
% herbicidal activity [2, 26]: 0%
% herbicidal activity [2, 27]: 47%
% herbicidal activity [2, 28]: 0%
% herbicidal activity [3]: 5%
% herbicidal activity [4, 26]: 0%
% herbicidal activity [4, 27]: 47%
% herbicidal activity [4, 28]: 0%
% herbicidal activity [5]: 0%
% herbicidal activity ([6]; A-1 12.5 g ai/ha): 0%
% herbicidal activity ([6]; A-1 25 g ai/ha): 0%
% herbicidal activity [7, 29]: 0%
% herbicidal activity [7, 26]: 0%
% herbicidal activity [7, 30]: 0%
% herbicidal activity [8, 31]: 0%
% herbicidal activity [8, 32]: 0%
% herbicidal activity [8, 33]: 0%
% herbicidal activity [9, 34]: 7%
% herbicidal activity [9, 35]: 28%
% herbicidal activity [9, 27]: 28%
% herbicidal activity ([10]; A-1 20 g ai/ha): 0%
% herbicidal activity ([10]; A-1 30 g ai/ha): 0%
% herbicidal activity [11]: 0%
% herbicidal activity [12]: 0%
% herbicidal activity ([13]; A-1 12.5 g ai/ha): 0%
% herbicidal activity ([13]; A-1 25 g ai/ha): 0%
% herbicidal activity [14]: 0%
% herbicidal activity [15]: 0%
% herbicidal activity [16]: 0%
% herbicidal activity [17]: 0%
% herbicidal activity [18]: 0%
% herbicidal activity [19]: 0%
% herbicidal activity [20]: 0%
% herbicidal activity [21]: 0%
% herbicidal activity ([22]; A-1 20 g ai/ha): 0%
% herbicidal activity ([22]; A-1 30 g ai/ha): 0%
% herbicidal activity ([23]; height 2-12 cm, A-1 20 g ai/ha): 37%
% herbicidal activity ([23]; height 2-12 cm, A-1 30 g ai/ha): 37%
% herbicidal activity [23, 36]: 0%
% herbicidal activity [23, 37]: 0%
% herbicidal activity [24]: 0%

CCOC(=O)COc1ccccc1Oc1nc(-n2c(=O)cc(C(F)(F)F)n(C)c2=O)c(F)cc1Cl [A-1, ethyl 2-[2-[[3-chloro-5-fluoro-6-[3-methyl-2,6-dioxo-4-(trifluoromethyl)pyrimidin-1-yl]-2-pyridyl]oxy]phenoxy]acetate]
% herbicidal activity [1]: 98%
% herbicidal activity [2, 25]: 90%
% herbicidal activity [2, 26]: 85%
% herbicidal activity [2, 27]: 77%
% herbicidal activity [2, 28]: 67%
% herbicidal activity [3]: 97%
% herbicidal activity [4, 26]: 85%
% herbicidal activity [4, 27]: 82%
% herbicidal activity [4, 28]: 67%
% herbicidal activity [5]: 77%
% herbicidal activity ([6]; A-1 12.5 g ai/ha): 82%
% herbicidal activity ([6]; A-1 25 g ai/ha): 85%
% herbicidal activity [7, 29]: 42%
% herbicidal activity [7, 26]: 64%
% herbicidal activity [7, 30]: 74%
% herbicidal activity [8, 31]: 18%
% herbicidal activity [8, 32]: 78%
% herbicidal activity [8, 33]: 55%
% herbicidal activity [9, 34]: 93%
% herbicidal activity [9, 35]: 80%
% herbicidal activity [9, 27]: 87%
% herbicidal activity ([10]; A-1 20 g ai/ha): 72%
% herbicidal activity ([10]; A-1 30 g ai/ha): 88%
% herbicidal activity [11]: 98%
% herbicidal activity [12]: 87%
% herbicidal activity ([13]; A-1 12.5 g ai/ha): 67%
% herbicidal activity ([13]; A-1 25 g ai/ha): 83%
% herbicidal activity [14]: 90%
% herbicidal activity [15]: 93%
% herbicidal activity [16]: 27%
% herbicidal activity [17]: 93%
% herbicidal activity [18]: 70%
% herbicidal activity [19]: 97%
% herbicidal activity [20]: 97%
% herbicidal activity [21]: 99%
% herbicidal activity ([22]; A-1 20 g ai/ha): 77%
% herbicidal activity ([22]; A-1 30 g ai/ha): 80%
% herbicidal activity ([23]; height 2-12 cm, A-1 20 g ai/ha): 99%
% herbicidal activity ([23]; height 2-12 cm, A-1 30 g ai/ha): 99%
% herbicidal activity [23, 36]: 77%
% herbicidal activity [23, 37]: 80%
% herbicidal activity [24]: 97%
